From US7884136B2, “Modified-release formulations of a bupropion salt” (Biovail Laboratories International S.R.L., priority 2005, dated 2011)
Where two headings read alike, the source gives them in different places.

Legend:
[1] = Solubility of Bupropion HBr vs Bupropion HCl in water, EtOH, IPA; format: physicochemical
[2] = pH of 0.5% aqueous solution of bupropion salts; format: physicochemical
Description: (§1) The eight salts were first evaluated by HPLC, KF, pH and DSC for purity, water content, aqueous pH and possible polymorphs.
(§2) The salts were analysed by DSC (at 10° C./min from 30° C. up to 400° C.) and the pH (aq. 0.5%), and the moisture content by KF were also measured. The TGA was performed on the HCl, maleate, tosylate and HBr salts.

[3] = Comparative forced degradation of bupropion HCl and HBr API salts, closed glass bottle, 40° C./75% RH, HPLC; format: physicochemical; details: closed glass bottle
Description: Further stability tests were performed by directly comparing bupropion HBr and bupropion HCl salts in forced degradation studies. […] At specified times, the material in the bottles was analyzed for the presence of degradation products and % potency (% assay).
The samples were exposed to the above conditions in a closed bottle for few days, and then subjected to HPLC analysis. The amount of the main degradation products present after treatment were compared with those amounts that were present initially.
The samples were analysed after 14 and 24 days (study-1) and 10 days (study II), in a quantitative manner by direct treatment of the whole content of the bottle as per the HPLC standard test method (P05.901.10).

[4] = Forced degradation stability study of bupropion salts spiked with placebo/excipients, closed vials, 40° C./75% RH, HPLC assay and impurities
Description: The stability of the salts was evaluated based on the formation of the main degradation products (see below) as determined by HPLC analysis and the % potency (or assay) of the API, after specific time periods in the stability chamber. The effect of the addition of solvents, such as water, ethanol and isopropyl alcohol, was also studied.
The samples of each salt and the spiked salts with the bupropion HCl XL were prepared under the conditions mentioned in Table 4. […] The stability of the bupropion salts were evaluated based on the formation of the main degradation product 3-chlorobenzoic acid (3-CBZ) and the intermediate degradation products diketone 827U76 and the ketohydroxyl derivatives (20U78 and 852U77) (Scheme 2).
As mentioned above, the stability samples were prepared in 2 mL vials and used directly for assay and impurity analysis by HPLC without further sample preparations to minimize errors.

[5] = TGA experiment at 100° C., loss of API salt over time; format: physicochemical; details: TGA at 100° C.
Description: The average weight of the excipients and the weight of the active pharmaceutical ingredient (API) present in the samples are presented in Table 72. […] FIG. 53 is a graph showing the loss of each salt over time in a TGA experiment at 100° C.

[6] = Moisture content of bupropion salts by KF; format: physicochemical
Description: as §1, §2

[7] = Release of bupropion base from bupropion HCl and HBr; format: physicochemical; details: 150 mg of the salt tested
Description: It was previously observed that when 150 mg of bupropion HCl was tested for its release of bupropion, the base value that was released was 130 mg.

[8] = Thermal analysis by TGA of bupropion salts; format: physicochemical; details: 400° C.
Description: 2-5 mg of each salt was placed in an aluminium pan and covered with its lid. DSC was run for each sample at the rate of 10° C./min (for HBr salt, different rates were used to investigate for polymorphs) from 30° C. to 400° C. TGA was also used for each of the HBr, HCl, maleate and tosylate salts.
as §2

[9] = repeat study, 40 C/75% RH, 10 Days, Lot# STN06973, hydrochloride
[10] = repeat study, 40 C/75% RH, 10 Days, Lot# STN06978, hydrochloride
[11] = repeat study, 40 C/75% RH, Initial, Lot# STN06973, hydrochloride
[12] = repeat study, 40 C/75% RH, Initial, Lot# STN06978, hydrochloride
[13] = In IPA/EtOH, 32 days, closed vials
[14] = In water, 32 days, closed vials

In the case of `CC(NC(C)(C)C)C(=O)c1cccc(Cl)c1.Cl` (racemic) [Bupropion HCl, (±)-1-(3-chlorophenyl)-2-[(1,1-dimethylethyl)amino]-1-propanone hydrochloride, reference compound], the solubility ([1]; ethanol, organic solvent or mixture, EtOH, read-out: Solubility, EtOH) is reported as 80 mg/mL, the solubility ([1]; isopropanol, organic solvent or mixture, IPA, read-out: Solubility, IPA) is reported as 10 mg/mL and the solubility ([1]; water, read-out: Solubility, Water) is reported as 270 mg/mL. The “pH (aq. 0.5%), Original (Initial APIs)” value ([2]; 0.5% aqueous solution, original API salts) was 5.90, the “pH (aq. 0.5%)” value ([2]; Table 3, supplier API) was 5.90 and the “% Assay” value ([3]; 40° C./75% RH, 14-Days) was 98.5%. The “% Impurities 3-CBZ” value ([3]; 40° C./75% RH, 14-Days) was 0.019%, the “% Impurities 20U78/dilu” value ([3]; 40° C./75% RH, 14-Days) was 0.038% and the “% Impurities 852U77” value ([3]; 40° C./75% RH, 14-Days) was 0.010%. The “% Impurities Total unknown” value ([3]; 40° C./75% RH, 14-Days) was 0.038%, the “Total (%) impurities” value ([3]; 40° C./75% RH, 14-Days) was 0.11% and the “% Assay” value ([3]; 40° C./75% RH, 24 Days) was 98.5%. The “% Impurities 3-CBZ” value ([3]; 40° C./75% RH, 24 Days) was 0.082%, the “% Impurities 20U78/dilu” value ([3]; 40° C./75% RH, 24 Days) was 0.040% and the “% Impurities 827U76” value ([3]; 40° C./75% RH, 24 Days) was 0.102%. The “% Impurities 852U77” value ([3]; 40° C./75% RH, 24 Days) was 0.023%, the “% Impurities Total unknown” value ([3]; 40° C./75% RH, 24 Days) was 0.049% and the “Total (%) impurities” value ([3]; 40° C./75% RH, 24 Days) was 0.30%. The “% Assay” value ([3]; 40° C./75% RH, Initial) was 100.4%, the “% Impurities 3-CBZ” value ([3]; 40° C./75% RH, Initial) was 0.002% and the “% Impurities 20U78/dilu” value ([3]; 40° C./75% RH, Initial) was 0.043%. The “% Impurities 852U77” value ([3]; 40° C./75% RH, Initial) was 0.003%, the “% Impurities Total unknown” value ([3]; 40° C./75% RH, Initial) was 0.044% and the “Total (%) impurities” value ([3]; 40° C./75% RH, Initial) was 0.09%. For the same molecule, the “% Assay” value [3, 9] was 96.3%, the “% Impurities 3-CBZ” value [3, 9] was 0.110% and the “% Impurities 20U78/dilu” value [3, 9] was 0.047%. For the same molecule, the “% Impurities 827U76” value [3, 9] was 0.045%, the “% Impurities 852U77” value [3, 9] was 0.047% and the “% Impurities Total unknown” value [3, 9] was 0.187%. For the same molecule, the “Total (%) impurities” value [3, 9] was 0.44%, the “% Assay” value [3, 10] was 96.5% and the “% Impurities 3-CBZ” value [3, 10] was 0.278%. For the same molecule, the “% Impurities 20U78/dilu” value [3, 10] was 0.057%, the “% Impurities 827U76” value [3, 10] was 0.141% and the “% Impurities 852U77” value [3, 10] was 0.124%. The “% Impurities Total unknown” value [3, 10] was 0.137%, the “Total (%) impurities” value [3, 10] was 0.74% and the “% Assay” value [3, 11] was 99.4%. The “% Impurities 3-CBZ” value [3, 11] was 0.003%, the “% Impurities 20U78/dilu” value [3, 11] was 0.040% and the “% Impurities Total unknown” value [3, 11] was 0.053%. The “Total (%) impurities” value [3, 11] was 0.10%, the “% Assay” value [3, 12] was 99.1% and the “% Impurities 3-CBZ” value [3, 12] was 0.002%. For the same molecule, the “% Impurities 20U78/dilu” value [3, 12] was 0.04%, the “% Impurities Total unknown” value [3, 12] was 0.165% and the “Total (%) impurities” value [3, 12] was 0.21%. For the same molecule, the “Order of stability (assay) with IPA & EtOH” value ([4]; DS and excipients spiked with IPA & EtOH, 32 days, closed vials, 40° C.) was “HCl>HBr>tosylate>maleate>fumarate”, the “Order of stability (assay) with water” value ([4]; DS and excipients spiked with water, 32 days, closed vials, 40° C.) was “tosylate>maleate>HCl>HBr>fumarate” and the “Content of impurity 3-CBZ, order of salts” value [4, 13] was “maleate > HBr > HCl > Fumarate”. For the same molecule, the “Content of impurity 852U77, order of salts” value [4, 13] was “fumarate > HBr ≈ HCl ≈ maleate ≈ tosylate”, the “Total imp., order of salts” value [4, 13] was “fumarate > maleate > HBr > HCl > tosylate” and the “Content of impurity 3-CBZ, order of salts” value [4, 14] was “HCl > HBr ≈ maleate ≈ fumarate”. For the same molecule, the “Content of impurity 852U77, order of salts” value [4, 14] was “fumarate > HBr > maleate > HCl”, the “Total imp., order of salts” value [4, 14] was “fumarate > HBr > HCl > tosylate > maleate” and the “Order of stability (assay, % potency)” value ([4]; salt plus excipients, 20 days, closed vial, 40° C./75% RH) was “HBr>HCl=tosylate>fumarate>maleate”. For the same molecule, the “Disproportionation of the salt at elevated temperature” value [5] was “disproportionation of the HCl salt occurs with concomitant loss of gaseous HCl”, the “Moisture Content (KF)” value ([6]; Table 3, supplier API) was 0.01% and the “KF (moisture content), Original (Initial APIs)” value ([6]; original API salts) was 0.0%. For the same molecule, the “Base value of bupropion released” value [7] was 130 mg and the “TGA: residue at 400° C.” value [8] was “minimal residues”.
